What all share (assay type): cell-based, Staphylococcus aureus
Assay [1] concerns S. aureus ATCC 29213. Briefly: MIC assay. Conditions: S. aureus ATCC 29213, Mueller-Hinton broth pH 7.2, aerobic, 37° C., 24 hours. The method, then:
1. Staphylococcus aureus—the principal staphylococcal test micro-organism used in these studies was Staphylococcus aureus ATCC 29213. This strain is the one recommended for QC/QA purposes in Minimum Inhibitory Concentration (MIC) assays by the US Clinical and Laboratory Standards Institute (formerly the NCCLS), an FDA-recognised body.
(§1) The staphylococci and enterococci were cultured and maintained on Mueller-Hinton Medium (agar and broth) at pH 7.2; they were incubated aerobically at 37° C. for 24 hours.
This is a standard international method for quantitatively assessing the antimicrobial activity of a compound in a liquid medium. The method used a 96-well microtitre plate, capable of holding about 200 μl of liquid per well. […] The culture media were as described above for the relevant test organisms.
The wells were inoculated with a liquid suspension of freshly grown micro-organism and incubated under the conditions described above. After incubation, the microtitre plate was examined visually (with the aid of a light box) for cloudiness in each well, which would indicate microbial growth. The MIC value was recorded as the lowest concentration of test compound required to inhibit microbial growth, i.e., the lowest concentration for which the liquid in the well remained clear.
The assays were conducted in duplicate and included both negative (culture medium only) and positive (culture medium, diluting solvent and inoculum) controls.
(§2) The following experiments all used S. aureus ATCC 29213 as the test organism. MIC, MBC and DDA assays, as described above, were carried out using a range of different benzoquinones and hydroquinones. Supplemented DDA assays, in the presence of salt, lipid and blood, were also conducted.

For assay [2], the system named is S. aureus ATCC 29213. Briefly: MBC assay. As for the experimental part:
as §1
This assay, normally carried out after an MIC assay, determines the minimum concentration of a compound that is lethal to the micro-organism being tested.
These samples were then individually sub-cultured on non-selective agar medium, under the incubation conditions described above. Following incubation they were examined visually for bacterial growth.
as §2

Assay [3] concerns S. aureus ATCC 29213. Briefly: Disc diffusion assay (DDA). As to conditions: S. aureus ATCC 29213, unsupplemented agar, 200 μg per disc (thymoquinone 50 μg, 2,6-dimethoxy-p-benzoquinone 100 μg); for zone of inhibition at 200 µg/disc: Staphylococcus aureus, ATCC29213, read-out: DDA (diameter of zone of inhibition). The method, then:
as §1
(§3) A sterile paper disc was impregnated with a sample of the test compound and a minimum of 30 minutes allowed for the solvents to evaporate as far as possible. The disc was then placed on an agar plate onto which the test micro-organism had been inoculated. The plate was then incubated under the conditions described above, following which it was examined visually for signs of bacterial growth. […] The diameter of this zone of “inhibition” was measured using a ProtoCOL™ automated zone sizer (Synbiosis, Cambridge, UK).
The area of the zone of inhibition was calculated from the measured zone diameter (D) using the formula π(D/2)^2.
(§4) For most DDA assays, 200 μg of each compound was loaded onto each disc.
For orientation: In agar diffusion tests the substance spreads into inoculated agar from a disc or well.

Assay [4] concerns S. aureus ATCC 29213. As to the kind of experiment: Supplemented disc diffusion assay. As to conditions: S. aureus ATCC 29213, 200 μg per disc (thymoquinone 50 μg, 2,6-dimethoxy-p-benzoquinone 100 μg); for zone of inhibition at 200 µg/disc: Staphylococcus aureus, ATCC29213, 24 h. As for the experimental part: as §1, §3
Performance under these conditions can provide a more reliable indication of activity on topical application. For assays conducted using S. aureus strains, the supplements were defibrinated horse blood (5% v/v), lipid (Tween™ 80 at 1% v/v) and sodium chloride (100 mM). For those using Propionibacterium spp. strains, the supplements were lipid (Tween™ 80 at 1% v/v) and sodium chloride (100 mM).
as §2, §4

The mark [5] stands for this setting: defibrinated horse blood 5% v/v.
Setting [6] is: Staphylococcus aureus, ATCC29213, read-out: MIC.
The mark [7] stands for this setting: Staphylococcus aureus, ATCC29213, read-out: MBC.
Where [8] appears, read: Tween 80 at 1% v/v, read-out: DDA + lipid.
Setting [9] is: defibrinated horse blood 5% v/v, read-out: DDA + blood.
[10] abbreviates: sodium chloride 100 mM, read-out: DDA + salt.

In brackets after ≈: the same amount, converted by molar mass. Where two headings read alike, the source gives them in different places.

The results in this text go back to patent US20090030086A1, “ANTIMICROBIAL AGENTS” (priority 2005, published 2009).

In general, MIC refers to the smallest concentration in the dilution series that meets the test's criterion for growth inhibition. By MBC is commonly meant the smallest concentration meeting the test's criterion for killing.

Turning to `Cc1cc(O)c(C)c(C)c1O` [2,5,6-trimethyl-p-hydroquinone], the MIC against S. aureus ATCC 29213 [1] came to 7.8 µg/mL (≈ 51.3 µM). In addition, in the assay with S. aureus ATCC 29213 [2], the MBC is 31.25 µg/mL (≈ 205 µM) and the MIC/MBC ratio is given as 0.25. Also, the “DDA (diameter of zone of inhibition)” value in the assay with S. aureus ATCC 29213 [3] was determined as 63.40 mm. In addition, the “DDA + lipid” value in the assay on S. aureus ATCC 29213 [4] (Tween 80 at 1% v/v) is 56.97 mm. Further, the “DDA + blood” value in the assay on S. aureus ATCC 29213 [4] (setting [5]) is given as 0.0 mm. Further, the “DDA + salt” value in the assay with S. aureus ATCC 29213 [4] (sodium chloride 100 mM) came to 61.63 mm.
In turn, `CC(C)(C)c1cc(O)c(C(C)(C)C)cc1O` [2,5-di-t-butyl-p-hydroquinone] returned a minimal inhibitory concentration (MIC) against S. aureus ATCC 29213 [1] of 15.6 µg/mL (≈ 70.2 µM). Besides, in the assay on S. aureus ATCC 29213 [2], the minimal bactericidal concentration (MBC) amounted to 15.6 µg/mL (≈ 70.2 µM) and the MIC/MBC ratio stood at 1. The “DDA (diameter of zone of inhibition)” value with S. aureus ATCC 29213 [3] was 10.06 mm. For the same molecule, in the assay on S. aureus ATCC 29213 [4] (Tween 80 at 1% v/v), the “DDA + lipid” value came out at 10.58 mm. Besides, the “DDA + blood” value in the assay on S. aureus ATCC 29213 [4] (setting [5]) came out at 10.89 mm. In the assay with S. aureus ATCC 29213 [4] (sodium chloride 100 mM), the “DDA + salt” value is reported as 11.21 mm.
Consider `CC(C)(C)C1=CC(=O)C=C(C(C)(C)C)C1=O` [2,6-di-t-butyl-p-benzoquinone], for which, in the assay on S. aureus ATCC 29213 [1] (setting [6]), the MIC stood at 62.5 µg/mL (≈ 284 µM). The MIC/MBC ratio in the assay on S. aureus ATCC 29213 [2] is recorded as 0.25. The MBC in the assay with S. aureus ATCC 29213 [2] (setting [7]) worked out at 250 µg/mL (≈ 1130 µM). Further, the zone of inhibition at 200 µg/disc in the assay on S. aureus ATCC 29213 [3] stood at 0 mm; in the assay with S. aureus ATCC 29213 [4] (setting [8]), 9.37 mm; in the assay with S. aureus ATCC 29213 [4] (setting [9]) it was 0 mm; in the assay on S. aureus ATCC 29213 [4] (setting [10]) it was 0 mm.
In the case of `Oc1cc(Cl)c(O)c(Cl)c1` [2,6-dichloro-p-hydroquinone], in the assay with S. aureus ATCC 29213 [1], the MIC stood at 31.25 µg/mL (≈ 175 µM). For the same molecule, in the assay with S. aureus ATCC 29213 [2], the MBC worked out at 31.25 µg/mL (≈ 175 µM) and the MIC/MBC ratio stood at 1. Further, the “DDA (diameter of zone of inhibition)” value in the assay on S. aureus ATCC 29213 [3] was 16.29 mm. Besides, in the assay with S. aureus ATCC 29213 [4] (Tween 80 at 1% v/v), the “DDA + lipid” value stood at 14.32 mm. For the same molecule, in the assay on S. aureus ATCC 29213 [4] (setting [5]), the “DDA + blood” value was 11.83 mm. Further, in the assay with S. aureus ATCC 29213 [4] (sodium chloride 100 mM), the “DDA + salt” value came to 16.19 mm.
On to `Oc1ccc(O)c(Br)c1` [2-bromo-p-hydroquinone], for which the MIC in the assay with S. aureus ATCC 29213 [1] was determined as 31.25 µg/mL (≈ 165 µM). For the same molecule, in the assay with S. aureus ATCC 29213 [2], the MBC was 31.25 µg/mL (≈ 165 µM) and the MIC/MBC ratio is listed as 1. Also, the “DDA (diameter of zone of inhibition)” value in the assay with S. aureus ATCC 29213 [3] is 20.75 mm. Also, the “DDA + lipid” value with S. aureus ATCC 29213 [4] (Tween 80 at 1% v/v) is 17.43 mm. Moreover, in the assay with S. aureus ATCC 29213 [4] (setting [5]), the “DDA + blood” value was 14.94 mm. Moreover, in the assay on S. aureus ATCC 29213 [4] (sodium chloride 100 mM), the “DDA + salt” value came out at 18.99 mm.
For the molecule `Oc1ccc(O)c(Cl)c1` [2-chloro-p-hydroquinone], the MIC against S. aureus ATCC 29213 [1] is 7.8 µg/mL (≈ 54 µM). Also, in the assay with S. aureus ATCC 29213 [2], the minimal bactericidal concentration (MBC) amounted to 7.8 µg/mL (≈ 54 µM) and the MIC/MBC ratio worked out at 1. Moreover, in the assay with S. aureus ATCC 29213 [3], the “DDA (diameter of zone of inhibition)” value was found to be 17.54 mm. For the same molecule, the “DDA + lipid” value in the assay with S. aureus ATCC 29213 [4] (Tween 80 at 1% v/v) is reported as 16.81 mm. Besides, the “DDA + blood” value with S. aureus ATCC 29213 [4] (setting [5]) is 13.70 mm. For the same molecule, in the assay on S. aureus ATCC 29213 [4] (sodium chloride 100 mM), the “DDA + salt” value was 19.30 mm.
As to `Cc1cccc(O)c1O` [3-methylcatechol], the MIC with S. aureus ATCC 29213 [1] (setting [6]) was determined as 62.5 µg/mL (≈ 503 µM). The MIC/MBC ratio with S. aureus ATCC 29213 [2] is 1. In addition, in the assay on S. aureus ATCC 29213 [2] (setting [7]), the minimal bactericidal concentration (MBC) was found to be 62.5 µg/mL (≈ 503 µM). In addition, the zone of inhibition at 200 µg/disc in the assay on S. aureus ATCC 29213 [3] was 19.8 mm; in the assay with S. aureus ATCC 29213 [4] (setting [8]) it was 18.7 mm; in the assay with S. aureus ATCC 29213 [4] (setting [9]), 0 mm; with S. aureus ATCC 29213 [4] (setting [10]), 20.2 mm.
